Patent US8022079B2, “Methods of modulating PPAR gamma-type receptors” (Galderma Research & Development, priority 2003, dated 2011)
Structures can show the parent of a compound that is named as a salt.

Columns and labels:
[1] = molecular target: T1, PPARα (Homo sapiens, UniProt Q07869); assay: Crossover-curve PPAR transactivation test (PPARα); assay type: cell-based; details: HeLN cells stably transfected with ERE-βGlob-Luc-SV-Neo and Gal-hPPARα; Schild regression against reference agonist; n.a. means not active; read-out: PPARα Kd app
T1 sequence (Q07869 200-468 limits assumed): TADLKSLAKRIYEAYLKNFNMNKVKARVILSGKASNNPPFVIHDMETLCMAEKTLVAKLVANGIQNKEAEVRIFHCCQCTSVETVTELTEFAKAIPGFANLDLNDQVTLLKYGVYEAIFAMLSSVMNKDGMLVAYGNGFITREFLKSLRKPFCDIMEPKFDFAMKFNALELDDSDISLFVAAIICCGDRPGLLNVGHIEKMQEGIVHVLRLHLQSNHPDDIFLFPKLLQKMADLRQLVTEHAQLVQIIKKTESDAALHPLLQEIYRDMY
Description: (§1) The activation of PPAR receptors with an agonist (activator) in HeLN cells leads to the expression of a reporter gene, luciferase, which, in the presence of a substrate, generates light. The modulation of the PPAR receptors is measured by quantifying the luminescence produced after incubating the cells in the presence of a reference agonist. The ligands displace the agonist from its site. The measurement of the activity is performed by quantifying the light produced. This measurement makes it possible to determine the modulatory activity of the compounds according to the invention by determining the constant that represents the affinity of the molecule for the PPAR receptor. Since this value can fluctuate depending on the basal activity and the expression of the receptor, it is referred to as Kd apparent (KdApp in nM).
(§2) To determine this constant, “crossover curves” of the test product against a reference agonist are performed in a 96-well plate: 10 concentrations of the test product plus a concentration 0 are arranged in a line, and 7 concentrations of the agonist plus a concentration 0 are arranged in a column. This represents 88 measurement points for 1 product and 1 receptor. The remaining 8 wells are used for repeatability controls.
(§3) Measurements are also taken for total agonist controls with the same products.
(§4) The HeLN cell lines used are stable transfectants containing the plasmids ERE-βGlob-Luc-SV-Neo (reporter gene) and PPAR (α, δ, γ) Gal-hPPAR. These cells are inoculated into 96-well plates at a rate of 10 000 cells per well in 100 μl of DMEM medium without phenol red and supplemented with 10% of defatted calf serum. The plates are then incubated at 37° C. and 7% CO2 for 16 hours.
(§5) The various dilutions of the test products and of the reference ligand are added at a rate of 5 μl per well. The plates are then incubated for 18 hours at 37° C. and 7% CO2. The culture medium is removed by turning over and 100 μl of a 1:1 PBS/luciferine mixture are added to each well. After 5 minutes, the plates are read by the luminescence detector.

[2] = molecular target: T2, PPARγ (Homo sapiens, UniProt P37231); assay: Crossover-curve PPAR transactivation test (PPARγ); assay type: cell-based; details: HeLN cells stably transfected with ERE-βGlob-Luc-SV-Neo and Gal-hPPARγ; Schild regression against reference agonist; n.a. means not active; read-out: PPARγ Kd app
T2 sequence (P37231 238-505 limits assumed): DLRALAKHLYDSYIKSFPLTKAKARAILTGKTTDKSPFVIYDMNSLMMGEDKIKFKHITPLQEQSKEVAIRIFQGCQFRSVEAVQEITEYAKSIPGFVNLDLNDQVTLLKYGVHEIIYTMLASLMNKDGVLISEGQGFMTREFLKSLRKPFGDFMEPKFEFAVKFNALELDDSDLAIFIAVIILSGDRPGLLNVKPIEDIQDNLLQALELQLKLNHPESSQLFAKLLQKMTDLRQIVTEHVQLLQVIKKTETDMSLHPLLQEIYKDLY
Description: as §1, §2, §3, §4, §5

| Molecule | Kd [1] [nM] | Kd [2] [nM] |
| --- | --- | --- |
| CCCCCCCC(=O)N(C)Cc1cc(-c2ccc(C[C@H](OCC)C(=O)O)cc2)cs1 [Example 5, 2(S)-Ethoxy-3-(4-{5-[(methyloctanoylamino)methyl]thiophen-3-yl}phenyl)propanoic acid] | 4000 | 0.06 |
| CCCCCCCC(=O)N(C)Cc1ccc(-c2ccc(C[C@H](OCC)C(=O)O)cc2)s1 [Example 6, 2(S)-Ethoxy-3-(4-{5-[(methyloctanoylamino)methyl]thiophen-2-yl}phenyl)propanoic acid] | 1000 | 2 |
| CCCCCCCNC(=O)N(C)c1ncc(-c2ccc(C[C@H](OCC)C(=O)O)cc2)s1 [Example 7, 2(S)-Ethoxy-3-{4-[2-(3-heptyl-1-methylureido)thiazol-5-yl]phenyl}propanoic acid] | 2000 | 60 |
| CCCCCNC(=O)N(C)c1ncc(-c2ccc(C[C@H](OCC)C(=O)O)cc2)s1 [Example 8, 2(S)-Ethoxy-3-{4-[2-(1-methyl-3-pentylureido)thiazol-5-yl]phenyl}propanoic acid] | – | 30 |
| CCCCCCCNC(=O)N(C)c1cccc(-c2ccc(C[C@H](OCC)C(=O)O)cc2)n1 [Example 10, 2(S)-Ethoxy-3-{4-[6-(3-heptyl-1-methylureido)pyrid-2-yl]phenyl}propanoic acid hydrochloride] | 120 | 0.5 |
| CCCCCC(=O)N(C)Cc1cc(-c2ccc(C[C@H](Nc3ccccc3C(=O)c3ccccc3)C(=O)O)cc2)cs1 [Example 15, 2(S)-(2-Benzoylphenylamino)-3-(4-{5-[(hexanoylmethylamino)methyl]thiophen-3-yl}phenyl)propanoic acid] | 2000 | 1000 |
| CCCCCCCNC(=O)N(C)c1cccc(-c2ccc(CC(OCC)C(=O)O)cn2)c1 (stereo not shown) [Example 20, 2-Ethoxy-3-{6-[3-(3-heptyl-1-methylureido)phenyl]pyrid-3-yl}propanoic acid] | – | 4 |
| N-{3-[5-(2,4-dioxothiazolidin-5-ylmethyl)pyrid-2-yl]benzyl}-N-methyloctanoylamide [Example 4] | – | 500 |
